Patent US20080039629A1, “Benzothniazole compositions and their use as ubiquition ligation inhibitors” (RIGEL PHARMACEUTICALS, INC., priority 2003, published 2008)

Molecular target: T1, E1 and His-E2 Ubch10 (UBC10) (Homo sapiens, UniProt P22314)
T1 construct: host or cells: E. coli (His-Ubch10); Sf9 insect cells (E1)
T1 sequence (P22314 1-1058): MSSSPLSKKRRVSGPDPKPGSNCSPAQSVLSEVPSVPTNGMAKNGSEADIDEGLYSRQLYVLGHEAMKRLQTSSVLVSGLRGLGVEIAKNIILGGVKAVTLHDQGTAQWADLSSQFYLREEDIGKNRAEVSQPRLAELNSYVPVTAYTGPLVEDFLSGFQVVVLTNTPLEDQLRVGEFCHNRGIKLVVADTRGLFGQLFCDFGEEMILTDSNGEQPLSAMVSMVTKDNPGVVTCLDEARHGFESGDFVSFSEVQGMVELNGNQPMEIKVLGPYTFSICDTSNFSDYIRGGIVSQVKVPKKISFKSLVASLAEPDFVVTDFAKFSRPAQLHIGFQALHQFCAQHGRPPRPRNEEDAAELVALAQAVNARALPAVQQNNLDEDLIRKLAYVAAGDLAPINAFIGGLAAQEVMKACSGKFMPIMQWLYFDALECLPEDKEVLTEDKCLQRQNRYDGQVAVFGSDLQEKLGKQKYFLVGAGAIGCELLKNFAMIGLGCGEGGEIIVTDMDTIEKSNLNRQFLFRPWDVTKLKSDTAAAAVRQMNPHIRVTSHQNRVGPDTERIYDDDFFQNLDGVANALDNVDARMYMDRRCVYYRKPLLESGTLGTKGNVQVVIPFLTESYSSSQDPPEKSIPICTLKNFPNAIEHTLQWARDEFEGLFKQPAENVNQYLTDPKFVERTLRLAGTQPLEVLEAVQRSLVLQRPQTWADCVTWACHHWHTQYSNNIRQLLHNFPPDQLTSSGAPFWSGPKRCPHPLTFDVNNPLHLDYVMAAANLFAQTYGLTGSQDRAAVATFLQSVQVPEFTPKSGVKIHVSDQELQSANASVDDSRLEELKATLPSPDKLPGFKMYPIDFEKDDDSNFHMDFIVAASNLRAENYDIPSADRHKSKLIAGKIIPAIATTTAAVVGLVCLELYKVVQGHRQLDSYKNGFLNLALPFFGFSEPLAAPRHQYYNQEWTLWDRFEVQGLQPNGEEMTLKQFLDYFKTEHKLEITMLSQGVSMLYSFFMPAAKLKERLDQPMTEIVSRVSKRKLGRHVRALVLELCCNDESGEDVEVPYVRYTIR
Experiment: ATP competitive assay, 200 μM ATP (high ATP)
Type: biochemical
Conditions: conclusion from UBC10 inhibition at 1 μM versus 200 μM ATP
Protocol: The attachment of a ubiquitin moiety to the E2 conjugating agent was assayed using Flag-ubiquitin that was purified from E. coli, E2 Ubch10 that was purified as a His-Ubch10 from E. coli, and E1 that was purified from Sf9 insect cells (Affiniti Research Products, Exeter, U.K.). The wells of a Nickel-substrate 96-well plate (Pierce Chemical) were blocked with 100 μl of 1% casein/phosphate buffered saline (PBS) for 1 hour at room temperature. The blocked Nickel-substrate plate was then washed three times with 200 μl of PBST (0.1% Tween-20 in PBS). […] The final reaction solution volume was fixed to 80 μl with Millipore-filtered water. To this was added the following: a ubiquitin agent inhibitor in 10 μl of DMSO, 10 μl of E1 and His-E2 Ubch10 in 20 mM Tris buffer, pH 7.5, and 5% glycerol so that there was 10 ng/well of E1 and 20 ng/well of His-E2 Ubch10. […]
After 1 hour, the wells were washed three times with 200 μl of PBST and the amount of E2-ubiquitin complex was measured. […] The luminescence of each well was then measured using a […] to calculate the amount of E2-ubiquitin complex. […]
The table below illustrates the ATP competitive inhibition properties of the pharmaceutical compositions of the invention comprising the compounds listed in the table using the ATP competitive assay described above. Inhibition was measured using IC50 values.

Results	Structure (SMILES)
ATP competitve	COc1ccc2nc(NC(=O)c3ccc(C)cc3)sc2c1 [Compound 3, N-(6-methoxy-1,3-benzothiazoi-2-yl)-4-methylbenzamide]
ATP competitve	COc1ccc2sc(NC(=O)c3ccc4c(c3)OCCO4)nc2c1 [Compound 14, N-(5-methoxy-1,3-benzothiazol-2-yl)-2,3-dihydro-1,4-benzodioxine-6-carboxamide]
